Test results as given in PubChem BioAssay AID330 (DTP/NCI, 2004).
Where “and” joins values, the source holds several entries; their conditions need not be identical. Equal values may be shown once. Inconclusive results and toxic doses are left out.

Tested on: P388 leukemia ip, CD2F1 mice, survival T/C
Experiment: NCI In Vivo Anticancer Drug Screen. Data for tumor model P388 Leukemia (intraperitoneal) in CD2F1 (CDF1) mice
Details: endpoint: median survival time, higher = longer survival
Outline: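 Mice carrying the transplanted tumor received test compound or vehicle. Survival was recorded in each group, and the value is the treated-group measurement divided by that of the vehicle-treated control group.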

[1] = dose: 50.0 mg/kg/injection, schedule: Q01DX005 (ip), vehicle: Klucel (hydroxypropylcellulose) (HPC)
[2] = dose: 100.0 mg/kg/injection, schedule: Q01DX005 (ip), vehicle: Klucel (hydroxypropylcellulose) (HPC)
[3] = dose: 200.0 mg/kg/injection, schedule: Q01DX005 (ip), vehicle: Klucel (hydroxypropylcellulose) (HPC)
[4] = dose: 50.0 mg/kg/injection, schedule: Q01DX009 (ip), vehicle: saline with Tween-80
[5] = dose: 100.0 mg/kg/injection, schedule: Q01DX009 (ip), vehicle: saline with Tween-80

In the case of c1ccc(-c2cc3nncc(-c4ccccc4)n3n2)cc1, the T/C [1] is reported as 107 % of control, the T/C [2] is reported as 105 % of control and the T/C [3] is reported as 96 % of control.
In the case of COc1ccc(-c2cc(=O)c3c(O)cc(O)c(-c4cc(-c5cc(=O)c6c(O)cc(OC)cc6o5)ccc4OC)c3o2)cc1, the T/C [1] is reported as 105 % of control, the T/C [2] is reported as 99 % of control and the T/C [3] is reported as 88 % of control.
With O=C1NC(=O)C2CCCCC12 (stereo unspecified) the T/C (dose: 12.5 mg/kg/injection, schedule: Q01DX009 (ip), vehicle: saline with Tween-80) was 109 % of control, the T/C (dose: 25.0 mg/kg/injection, schedule: Q01DX009 (ip), vehicle: saline with Tween-80) was 102 % of control and the T/C [4] was 100 % of control. For the same molecule, the T/C [5] was 100 % of control.
CCOC(=O)C1CC(c2ccccc2)=NN1c1ccccc1 (stereo unspecified) was tested, and the T/C (dose: 25.0 mg/kg/injection, schedule: Q01DX009 (ip), vehicle: Klucel (hydroxypropylcellulose) (HPC)) was 96 % of control, the T/C (dose: 50.0 mg/kg/injection, schedule: Q01DX009 (ip), vehicle: Klucel (hydroxypropylcellulose) (HPC)) was 96 % of control and the T/C (dose: 100.0 mg/kg/injection, schedule: Q01DX009 (ip), vehicle: Klucel (hydroxypropylcellulose) (HPC)) was 99 % of control. For the same molecule, the T/C (dose: 200.0 mg/kg/injection, schedule: Q01DX009 (ip), vehicle: Klucel (hydroxypropylcellulose) (HPC)) was 99 % of control and the T/C (dose: 400.0 mg/kg/injection, schedule: Q01DX009 (ip), vehicle: Klucel (hydroxypropylcellulose) (HPC)) was 96 % of control.
CC12OC(=O)CC1OC2(c1ccccc1)c1ccccc1 (stereo unspecified) was tested, and the T/C (dose: 60.0 mg/kg/injection, schedule: Q01DX005 (ip), vehicle: saline with Tween-80) was 96 % of control, the T/C (dose: 120.0 mg/kg/injection, schedule: Q01DX005 (ip), vehicle: saline with Tween-80) was 93 % of control and the T/C (dose: 240.0 mg/kg/injection, schedule: Q01DX005 (ip), vehicle: saline with Tween-80) was 90 % of control.
For Cc1ccc(SC(=O)c2cccnc2Oc2ccccc2)cc1, the T/C [1] was 90 % of control, the T/C [2] was 99 % of control and the T/C [3] was 96 % of control.
CCCc1c(C)nc2scc(-c3ccc(Cl)cc3)n2c1=O was tested, and the T/C [4] was 96 % of control, the T/C [5] was 98 % of control and the T/C (dose: 200.0 mg/kg/injection, schedule: Q01DX009 (ip), vehicle: saline with Tween-80) was 96 % of control.
With COc1cc(C2c3cc(O)c(OC)cc3CC(O)(CO)C2CO)ccc1O (stereo unspecified) the T/C (dose: 23.75 mg/kg/injection, schedule: Q01DX005 (ip), vehicle: Klucel (hydroxypropylcellulose) (HPC)) was 100 % of control, the T/C (dose: 47.5 mg/kg/injection, schedule: Q01DX005 (ip), vehicle: Klucel (hydroxypropylcellulose) (HPC)) was 95 % of control and the T/C (dose: 95.0 mg/kg/injection, schedule: Q01DX005 (ip), vehicle: Klucel (hydroxypropylcellulose) (HPC)) was 86 % of control. The T/C (dose: 190.0 mg/kg/injection, schedule: Q01DX005 (ip), vehicle: Klucel (hydroxypropylcellulose) (HPC)) was 90 % of control.
With Cc1ccc(N2C(=S)N(c3cccc(Cl)c3Cl)C(=O)C(N=Nc3cccc(Cl)c3Cl)C2O)cc1 (stereo unspecified) the T/C (dose: 100.0 mg/kg/injection, schedule: Q01DX001 (ip), vehicle: Klucel (hydroxypropylcellulose) (HPC)) was 97 % of control, the T/C (dose: 200.0 mg/kg/injection, schedule: Q01DX001 (ip), vehicle: Klucel (hydroxypropylcellulose) (HPC)) was 98 % of control and the T/C (dose: 400.0 mg/kg/injection, schedule: Q01DX001 (ip), vehicle: Klucel (hydroxypropylcellulose) (HPC)) was 97 % of control.
In the case of CCC1OCCN1C(C)C (stereo unspecified), the T/C (dose: 100.0 mg/kg/injection, schedule: Q04DX003 (ip), vehicle: saline with Tween-80) is reported as 104 % of control and the T/C (dose: 200.0 mg/kg/injection, schedule: Q04DX003 (ip), vehicle: saline with Tween-80) is reported as 100 % of control.
O=C(c1ccc(Br)cc1)c1cnc2nc(-c3ccccc3)c(-c3ccccc3)nn12 was tested, and the T/C (dose: 50.0 mg/kg/injection, schedule: Q01DX005 (ip), vehicle: saline with Tween-80) was 91 % of control, the T/C (dose: 100.0 mg/kg/injection, schedule: Q01DX005 (ip), vehicle: saline with Tween-80) was 96 % of control and the T/C (dose: 200.0 mg/kg/injection, schedule: Q01DX005 (ip), vehicle: saline with Tween-80) was 96 % of control.
With CCCCCC(Cn1ccnc1)c1c(Cl)cccc1Cl (stereo unspecified) the T/C (dose: 25.0 mg/kg/injection, schedule: Q04DX003 (ip), vehicle: saline) was 103 % of control, the T/C (dose: 50.0 mg/kg/injection, schedule: Q04DX003 (ip), vehicle: saline) was 100 % of control and the T/C (dose: 100.0 mg/kg/injection, schedule: Q04DX003 (ip), vehicle: saline) was 91 % of control.
In the case of S=c1[nH]nc(Cc2cccc3ccccc23)n1-c1ccccc1, the T/C [1] is reported as 97 % of control, the T/C [2] is reported as 99 % of control and the T/C [3] is reported as 90 % of control.
For CSc1nc(N)c(NS(=O)(=O)c2ccccc2[N+](=O)[O-])c(=O)[nH]1, the T/C [1] was 100 % of control, the T/C [2] was 90 % of control and the T/C [3] was 90 % of control.
For CCOc1ccc(C(C)c2cc3c(cc2OCC)OCO3)cc1C (stereo unspecified), the T/C (dose: 25.0 mg/kg/injection, schedule: Q01DX005 (ip), vehicle: Klucel (hydroxypropylcellulose) (HPC)) was 94 % of control, the T/C [1] was 110 % of control and 116 % of control and 97 % of control and the T/C [2] was 101 % of control and 119 % of control. The T/C [3] was 114 % of control.
In the case of N=C1CCCS1, the T/C (dose: 25.0 mg/kg/injection, schedule: Q01DX005 (ip), vehicle: saline) is reported as 115 % of control and the T/C (dose: 100.0 mg/kg/injection, schedule: Q01DX005 (ip), vehicle: saline) is reported as 150 % of control.
